pKd: −log10 of the molar value. Activity calls are given as the source filed them. The calls are words filed in the database; no cut-off is given here.
Assays:
[1] = tested on: THP-1; test: Induction of TNFalpha secretion in TLR2 knock down human THP-1 cells at 20 to 40 uM incubated for 24 hrs by ELISA method; format: functional, cell-based; conditions: dose 20-40 µM
[2] = tested on: HCT-116; test: Induction of apoptosis in human HCT-116 cells cocultured with PMA-differentiated THP-1 cells assessed as late apoptotic cells at 10 uM measured after 24 hrs using annexin V-FITC/PI staining based flow cytometry; format: functional
[3] = tested on: HCT-116; test: Induction of apoptosis in human HCT-116 cells cocultured with PMA-differentiated THP-1 cells assessed as early apoptotic cells at 10 uM measured after 24 hrs using annexin V-FITC/PI staining based flow cytometry; format: functional
[4] = molecular target: Toll-like receptor 7 (Homo sapiens) (UniProt Q9NYK1); test: Agonist activity at TLR7 in HEK-Blue hTLR7 cells at 0.1 to 100 uM incubated for 24 hrs by Quanti-Blue based SEAP assay; format: cell-based; conditions: dose 0.1-100 µM
[5] = Immunostimulatory activity in human CD8+ T cells assessed as fold increase at 0.1 to 10 uM incubated for 48 hrs by flow cytometry analysis; format: functional, CD8-positive T cell; conditions: dose 0.1-10 µM
[6] = tested on: Macrophage; test: Induction of IL-6 secretion in TLR2-/- C57BL/6 mouse peritoneal macrophages at 0.01 to 10 uM incubated for 24 hrs by ELISA method; format: functional, cell-based; conditions: dose 0.01-10 µM
[7] = molecular target: Toll-like receptor 5 (Homo sapiens) (UniProt O60602); test: Agonist activity at TLR5 in HEK-Blue hTLR5 cells at 0.1 to 100 uM incubated for 24 hrs by Quanti-Blue based SEAP assay; format: cell-based; conditions: dose 0.1-100 µM
[8] = molecular target: Nuclear factor NF-kappa-B complex (Homo sapiens) (UniProt Q00653+P19838+Q04206); test: Activation of NF-kappaB signalling in HEK-Blue hTLR2 cells at 10 uM in presence of triptolide; format: cell-based
[9] = Cytotoxicity against HEK-Blue TLR2 cells incubated for 24 hrs by CCK-8 assay; format: toxicity, cell-based, HEK-Blue hTLR2; conditions: human
[10] = tested on: PBMC; test: Induction of IL-1beta secretion in human PBMC incubated for 24 hrs by ELISA method; format: functional, cell-based; conditions: dose 0.01-10 µM
[11] = molecular target: T1, Toll-like receptor 2 (Homo sapiens, UniProt O60603); test: Agonist activity at TLR2 in HEK-Blue cells incubated for 24 hrs by Quanti-Blue based SEAP assay; format: cell-based; conditions: HEK-Blue hTLR2, filed as agonist
[12] = tested on: THP-1; test: Upregulation of MyD88 expression in human PMA-differentiated THP-1 cells assessed as downregulation of IkappaBalpha at 10 uM incubated for 2 hrs by Western blot analysis; format: functional, cell-based
[13] = molecular target: Toll-like receptor 6 (Homo sapiens) (UniProt Q9Y2C9); test: Agonist activity at TLR6 in HEK-Blue hTLR2 cells at 0.2 uM incubated for 24 hrs in presence of anti-hTLR6-IgA antibodies measured by Quanti-Blue based SEAP assay; format: cell-based
[14] = tested on: THP-1; test: Upregulation of MyD88 expression in human PMA-differentiated THP-1 cells assessed as induction of IKKalpha phosphorylation at 10 uM incubated for 2 hrs by Western blot analysis; format: functional, cell-based
[15] = tested on: THP-1; test: Induction of JNK phosphorylation in human PMA-differentiated THP-1 cells at 10 uM incubated for 2 hrs by Western blot analysis; format: functional, cell-based
[16] = tested on: RAW264.7; test: Induction of nitric oxide release in mouse RAW264.7 cells at 0.01 to 10 uM incubated for 24 hrs by Griess reagent based assay; format: functional, cell-based; conditions: dose 0.01-10 µM
[17] = Stability in mouse liver microsomes assessed as half life at 250 uM in presence of NADPH by HPLC-MS analysis; format: ADME
[18] = tested on: Macrophage; test: Induction of TNFalpha secretion in wild-type C57BL/6 mouse peritoneal macrophages at 0.01 to 10 uM incubated for 24 hrs by ELISA method; format: functional, cell-based; conditions: dose 0.01-10 µM
[19] = tested on: MCF7; test: Induction of apoptosis in human MCF7 cells cocultured with PMA-differentiated THP-1 cells assessed as early apoptotic cells at 10 uM measured after 24 hrs by annexin V-FITC/PI staining based flow cytometry (reference value: 7.87 %); format: functional
[20] = tested on: CD3-positive T cell; test: Immunostimulatory activity in human CD3+ T cells at 0.1 to 10 uM incubated for 48 hrs by flow cytometry analysis; format: functional, cell-based; conditions: dose 0.1-10 µM
[21] = tested on: THP-1; test: Upregulation of MyD88 expression in human PMA-differentiated THP-1 cells assessed as induction of p38 phosphorylation at 10 uM incubated for 2 hrs by Western blot analysis; format: functional, cell-based
[22] = tested on: MCF7; test: Induction of apoptosis in human MCF7 cells upto 100 uM by microplate reader analysis; format: functional, cell-based; conditions: dose microM <=100
[23] = tested on: B cell; test: Immunostimulatory activity in human B cells assessed as fold increase at 0.1 to 10 uM incubated for 48 hrs by flow cytometry analysis; format: functional; conditions: dose 0.1-10 µM
[24] = molecular target: T1, Toll-like receptor 2; test: Agonist activity at TLR2 in HEK-Blue cells assessed as fold increase in activity 0.0015 to 10 uM incubated for 24 hrs by Quanti-Blue based SEAP assay; format: cell-based; conditions: HEK-Blue hTLR2, dose 0.0015-10 µM
[25] = molecular target: Toll-like receptor 3 (Homo sapiens) (UniProt O15455); test: Agonist activity at TLR3 in HEK-Blue hTLR3 cells at 0.1 to 100 uM incubated for 24 hrs by Quanti-Blue based SEAP assay; format: cell-based; conditions: dose 0.1-100 µM
[26] = tested on: THP-1; test: Upregulation of TLR1 expression in human THP-1 cells at 20 uM by immunoprecipitation method; format: functional, cell-based
[27] = tested on: THP-1; test: Induction of IL-1beta secretion in human PMA-differentiated THP-1 cells incubated for 24 hrs by ELISA method; format: functional, cell-based; conditions: dose 0.01-10 µM
[28] = tested on: THP-1; test: Induction of TNFalpha secretion in human PMA-differentiated THP-1 cells incubated for 24 hrs by ELISA method; format: functional, cell-based; conditions: dose 0.01-10 µM
[29] = tested on: PBMC; test: Induction of TNFalpha secretion in human PBMC incubated for 24 hrs by ELISA method; format: functional, cell-based; conditions: dose 0.01-10 µM
[30] = molecular target: Toll-like receptor 4 (Homo sapiens) (UniProt O00206); test: Agonist activity at TLR4 in HEK-Blue hTLR4 cells at 0.1 to 100 uM incubated for 24 hrs by Quanti-Blue based SEAP assay; format: cell-based; conditions: dose 0.1-100 µM
[31] = Selectivity index, ratio of CC50 for HEK-Blue TLR2 cells to EC50 for agonist activity at TLR2 in HEK-Blue TLR2 cells; format: functional
[32] = tested on: CD4+ve Th; test: Immunostimulatory activity in human CD4+ T cells at 0.1 to 10 uM incubated for 48 hrs by flow cytometry analysis; format: functional, cell-based; conditions: dose 0.1-10 µM
[33] = molecular target: Toll-like receptor 1/2 (Homo sapiens) (UniProt O60603+Q15399); test: Agonist activity at TLR1/TLR2 in human THP-1 cells assessed as induction of TLR1/TLR2 dimerization at 20 uM incubated for 12 hrs by coimmunoprecipitation method; format: cell-based; conditions: filed as agonist
[34] = molecular target: T1, Toll-like receptor 2; test: Binding affinity to recombinant human TLR2 expressed in H5 cells by surface plasmon resonance method
[35] = tested on: HEK-Blue hTLR2; test: Upregulation of TLR2 expression in HEK-Blue TLR2 cells incubated for 24 hrs by Western blot analysis; format: functional, cell-based; conditions: Homo sapiens, dose 0.01-50 µM
[36] = tested on: B-cell line; test: Immunostimulatory activity in mouse C57 spleen B cells in assessed as fold increase at 0.1 to 10 uM incubated for 48 hrs by flow cytometry analysis; format: functional, cell-based; conditions: dose 0.1-10 µM

T1 sequence (O60603 whole entry): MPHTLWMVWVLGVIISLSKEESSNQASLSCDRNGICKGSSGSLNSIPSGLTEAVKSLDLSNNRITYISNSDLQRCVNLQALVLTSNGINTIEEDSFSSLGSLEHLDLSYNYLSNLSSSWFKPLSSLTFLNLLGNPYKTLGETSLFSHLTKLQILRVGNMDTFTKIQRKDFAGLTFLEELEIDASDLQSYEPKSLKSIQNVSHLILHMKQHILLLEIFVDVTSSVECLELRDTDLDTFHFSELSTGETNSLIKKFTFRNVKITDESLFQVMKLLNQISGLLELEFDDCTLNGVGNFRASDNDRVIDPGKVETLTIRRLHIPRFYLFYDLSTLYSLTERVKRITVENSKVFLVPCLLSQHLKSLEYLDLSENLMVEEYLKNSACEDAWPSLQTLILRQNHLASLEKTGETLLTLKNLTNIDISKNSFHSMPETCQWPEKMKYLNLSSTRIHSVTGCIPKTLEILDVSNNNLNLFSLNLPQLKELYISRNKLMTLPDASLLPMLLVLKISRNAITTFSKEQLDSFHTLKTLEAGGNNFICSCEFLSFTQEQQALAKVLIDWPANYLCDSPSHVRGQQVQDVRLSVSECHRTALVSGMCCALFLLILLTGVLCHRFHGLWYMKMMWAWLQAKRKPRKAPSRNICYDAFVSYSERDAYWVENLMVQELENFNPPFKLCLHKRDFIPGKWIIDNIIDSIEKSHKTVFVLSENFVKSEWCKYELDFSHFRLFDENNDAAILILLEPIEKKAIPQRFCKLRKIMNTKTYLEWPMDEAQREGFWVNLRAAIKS
Sequence of Toll-like receptor 5 (Homo sapiens) (O60602 whole entry): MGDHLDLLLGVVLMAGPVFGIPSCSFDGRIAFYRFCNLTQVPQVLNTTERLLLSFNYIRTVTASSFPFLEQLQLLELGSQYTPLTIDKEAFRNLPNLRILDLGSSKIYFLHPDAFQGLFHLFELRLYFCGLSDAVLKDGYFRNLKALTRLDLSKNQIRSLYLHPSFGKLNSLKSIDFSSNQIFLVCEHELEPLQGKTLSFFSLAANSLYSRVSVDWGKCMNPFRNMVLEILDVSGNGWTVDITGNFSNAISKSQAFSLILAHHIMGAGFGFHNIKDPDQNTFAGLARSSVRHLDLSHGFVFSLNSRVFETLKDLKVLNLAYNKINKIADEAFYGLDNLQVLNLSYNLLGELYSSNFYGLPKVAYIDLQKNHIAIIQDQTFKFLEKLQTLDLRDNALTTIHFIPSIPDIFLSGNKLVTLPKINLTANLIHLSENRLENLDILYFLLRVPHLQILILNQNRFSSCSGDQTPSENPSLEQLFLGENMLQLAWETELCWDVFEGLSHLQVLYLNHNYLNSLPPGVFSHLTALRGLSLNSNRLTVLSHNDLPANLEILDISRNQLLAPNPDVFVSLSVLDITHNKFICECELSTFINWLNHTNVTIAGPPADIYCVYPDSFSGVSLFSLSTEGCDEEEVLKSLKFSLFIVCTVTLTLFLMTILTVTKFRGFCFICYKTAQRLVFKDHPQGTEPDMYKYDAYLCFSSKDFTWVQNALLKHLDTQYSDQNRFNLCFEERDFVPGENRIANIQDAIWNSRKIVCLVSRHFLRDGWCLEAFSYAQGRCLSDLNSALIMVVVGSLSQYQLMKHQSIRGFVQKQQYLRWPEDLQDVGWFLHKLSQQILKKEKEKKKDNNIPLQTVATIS
Sequence of Nuclear factor NF-kappa-B complex (Homo sapiens) (P19838 whole entry, looked up): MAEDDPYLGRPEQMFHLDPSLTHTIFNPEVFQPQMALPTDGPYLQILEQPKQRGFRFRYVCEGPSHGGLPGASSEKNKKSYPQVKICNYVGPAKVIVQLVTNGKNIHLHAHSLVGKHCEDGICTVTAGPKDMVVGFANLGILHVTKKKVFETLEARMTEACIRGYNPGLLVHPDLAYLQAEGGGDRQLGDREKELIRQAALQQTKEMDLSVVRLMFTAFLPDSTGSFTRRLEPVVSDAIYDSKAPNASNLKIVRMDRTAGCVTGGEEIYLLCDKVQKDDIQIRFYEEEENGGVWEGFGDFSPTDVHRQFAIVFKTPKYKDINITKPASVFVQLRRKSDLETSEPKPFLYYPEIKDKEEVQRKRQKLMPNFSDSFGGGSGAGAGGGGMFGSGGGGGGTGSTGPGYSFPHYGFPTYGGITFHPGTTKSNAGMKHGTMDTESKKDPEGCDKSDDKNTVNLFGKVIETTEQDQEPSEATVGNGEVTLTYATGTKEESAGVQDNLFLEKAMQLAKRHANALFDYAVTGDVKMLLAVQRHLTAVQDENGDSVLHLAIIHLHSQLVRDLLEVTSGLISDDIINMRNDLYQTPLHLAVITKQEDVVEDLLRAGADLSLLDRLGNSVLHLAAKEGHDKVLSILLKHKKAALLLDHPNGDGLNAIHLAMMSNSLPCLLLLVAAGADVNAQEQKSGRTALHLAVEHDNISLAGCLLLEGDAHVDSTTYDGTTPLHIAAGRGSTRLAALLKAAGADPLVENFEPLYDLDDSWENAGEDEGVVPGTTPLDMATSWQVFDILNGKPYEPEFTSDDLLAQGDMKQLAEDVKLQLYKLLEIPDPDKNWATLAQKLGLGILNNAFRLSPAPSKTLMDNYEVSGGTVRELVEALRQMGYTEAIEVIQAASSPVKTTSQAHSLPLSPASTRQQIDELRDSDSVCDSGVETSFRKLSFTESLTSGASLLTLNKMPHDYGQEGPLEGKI
Sequence of Nuclear factor NF-kappa-B complex (Homo sapiens) (Q00653 whole entry, looked up): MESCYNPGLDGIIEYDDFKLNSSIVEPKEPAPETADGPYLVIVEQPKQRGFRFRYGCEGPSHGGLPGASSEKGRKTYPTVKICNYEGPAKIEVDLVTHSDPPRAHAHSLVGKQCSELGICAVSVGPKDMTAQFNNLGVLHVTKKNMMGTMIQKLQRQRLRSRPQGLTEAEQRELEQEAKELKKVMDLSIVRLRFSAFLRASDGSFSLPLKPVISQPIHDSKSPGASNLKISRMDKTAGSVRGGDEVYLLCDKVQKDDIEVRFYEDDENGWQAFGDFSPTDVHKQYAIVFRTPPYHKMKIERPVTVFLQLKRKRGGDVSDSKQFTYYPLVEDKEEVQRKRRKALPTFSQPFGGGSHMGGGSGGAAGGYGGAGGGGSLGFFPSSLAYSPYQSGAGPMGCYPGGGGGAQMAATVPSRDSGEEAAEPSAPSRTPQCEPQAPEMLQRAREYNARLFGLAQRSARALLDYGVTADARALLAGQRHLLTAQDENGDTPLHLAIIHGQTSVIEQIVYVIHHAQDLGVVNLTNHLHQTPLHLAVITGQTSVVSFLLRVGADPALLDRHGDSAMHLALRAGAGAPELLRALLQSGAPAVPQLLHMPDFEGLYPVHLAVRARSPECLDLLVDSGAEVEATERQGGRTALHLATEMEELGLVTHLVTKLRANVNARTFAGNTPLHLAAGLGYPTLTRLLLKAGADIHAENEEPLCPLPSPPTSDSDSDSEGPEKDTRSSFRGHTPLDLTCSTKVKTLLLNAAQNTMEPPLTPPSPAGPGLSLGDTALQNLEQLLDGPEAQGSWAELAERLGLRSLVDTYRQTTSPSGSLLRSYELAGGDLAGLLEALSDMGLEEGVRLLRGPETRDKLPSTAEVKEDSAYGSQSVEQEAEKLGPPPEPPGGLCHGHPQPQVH
Sequence of Nuclear factor NF-kappa-B complex (Homo sapiens) (Q04206 whole entry, looked up): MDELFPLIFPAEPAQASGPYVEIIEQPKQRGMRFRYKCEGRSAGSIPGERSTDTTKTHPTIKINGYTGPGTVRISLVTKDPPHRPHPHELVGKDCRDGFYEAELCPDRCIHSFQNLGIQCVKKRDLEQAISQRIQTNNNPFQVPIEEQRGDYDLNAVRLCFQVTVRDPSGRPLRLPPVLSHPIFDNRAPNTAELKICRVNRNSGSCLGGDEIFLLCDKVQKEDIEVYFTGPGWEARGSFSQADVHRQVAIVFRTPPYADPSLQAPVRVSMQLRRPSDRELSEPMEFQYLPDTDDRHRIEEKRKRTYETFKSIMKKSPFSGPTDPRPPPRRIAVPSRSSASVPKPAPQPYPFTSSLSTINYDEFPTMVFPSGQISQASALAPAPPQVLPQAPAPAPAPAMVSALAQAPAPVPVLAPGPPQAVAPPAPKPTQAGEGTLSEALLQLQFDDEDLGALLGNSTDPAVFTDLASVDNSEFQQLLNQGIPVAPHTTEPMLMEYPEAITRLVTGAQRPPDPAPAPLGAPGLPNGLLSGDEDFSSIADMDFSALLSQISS
Sequence of Toll-like receptor 3 (Homo sapiens) (O15455 whole entry): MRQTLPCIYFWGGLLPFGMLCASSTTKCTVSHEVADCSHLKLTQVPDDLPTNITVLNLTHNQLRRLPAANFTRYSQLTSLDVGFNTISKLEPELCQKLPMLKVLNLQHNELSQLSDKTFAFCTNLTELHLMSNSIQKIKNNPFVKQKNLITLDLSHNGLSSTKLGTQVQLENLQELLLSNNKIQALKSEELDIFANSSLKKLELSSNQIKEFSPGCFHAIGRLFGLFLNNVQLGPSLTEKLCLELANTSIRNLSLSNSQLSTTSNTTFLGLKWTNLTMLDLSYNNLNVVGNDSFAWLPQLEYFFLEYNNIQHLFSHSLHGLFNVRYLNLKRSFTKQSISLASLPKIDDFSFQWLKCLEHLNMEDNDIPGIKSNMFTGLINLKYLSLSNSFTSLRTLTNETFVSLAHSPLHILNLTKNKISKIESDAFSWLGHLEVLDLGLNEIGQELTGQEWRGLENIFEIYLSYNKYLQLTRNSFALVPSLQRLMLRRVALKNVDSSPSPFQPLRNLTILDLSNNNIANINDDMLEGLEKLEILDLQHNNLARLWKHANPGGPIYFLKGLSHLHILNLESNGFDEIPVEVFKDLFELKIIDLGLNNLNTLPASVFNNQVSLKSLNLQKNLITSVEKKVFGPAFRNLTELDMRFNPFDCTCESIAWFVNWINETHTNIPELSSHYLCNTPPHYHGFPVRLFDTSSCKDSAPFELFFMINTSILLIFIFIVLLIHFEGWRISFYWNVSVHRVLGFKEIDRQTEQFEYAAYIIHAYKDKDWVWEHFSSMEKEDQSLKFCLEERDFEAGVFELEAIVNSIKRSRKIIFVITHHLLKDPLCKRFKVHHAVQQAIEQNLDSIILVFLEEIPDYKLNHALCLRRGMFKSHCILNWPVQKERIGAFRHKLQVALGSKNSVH

Activity [4]: inactive
Activity [7]: inactive
Activity [8]: inactive
Activity [11]: Dose-Dependent Effect
Activity [13]: inactive
half-life at 250 µM [17]: 90 min
fold change (FC) [24]: 370
Activity [25]: inactive
Activity [30]: inactive
Activity [33]: Active
pKd [34]: 7.28
SMILES: CC(C)OC(=O)c1c(NC(=S)Nc2ccc(F)c3ccccc23)sc2c1CCC2
Activity [1]: inactive
Activity [2]: 14.3%
Activity [3]: 11.5%
fold change (FC) [5]: 2
Activity [6]: inactive
CC50 at 24 h [9]: > 100 µM
Activity [10]: Dose-Dependent Effect
Activity [12]: Active
Activity [14]: Active
Activity [15]: inactive
Activity [16]: inactive
Activity [18]: inactive
Activity [19]: 16.4%
Activity [20]: Active
Activity [21]: Active
Activity [22]: inactive
fold change (FC) [23]: 7
Activity [26]: Active
Activity [27]: Dose-Dependent Effect
Activity [28]: Dose-Dependent Effect
Activity [29]: Dose-Dependent Effect
Ratio CC50/EC50 [31]: >3200
Activity [32]: Active
Activity [35]: Dose-Dependent Effect
Activity [36]: inactive

Source: ChEMBL document CHEMBL5038589, “Design, Synthesis, and Structure-Activity Relationship of N-Aryl-N'-(thiophen-2-yl)thiourea Derivatives as Novel and Specific Human TLR1/2 Agonists for Potential Cancer Immunotherapy” (J Med Chem, 2021)
